Test results from paper PMC4413193, “3-[4-(1H-Indol-3-yl)-1,3-thiazol-2-yl]-1H-pyrrolo[2,3-b]pyridines, Nortopsentin Analogues with Antiproliferative Activity” (Marine Drugs, 2015).

Test: Solubility noted during NMR characterisation
Format: physicochemical
Details: NMR solvents (DMSO-d6 or CDCl3)
Procedure: All melting points were taken on a Büchi-Tottoly capillary apparatus. IR spectra were determined in bromoform with a Shimadzu FT/IR 8400S spectrophotometer. ^1H and ^13C NMR spectra were measured at 200 and 50.0 MHz, respectively, in dimethylsulfoxide (DMSO)-d6 or CDCl3 solution, using a Bruker Avance II series 200 MHz spectrometer. […] Column chromatography was performed with Merk silica gel 230–400 mesh ASTM or with Büchi Sepacor chromatography module (prepacked cartridge system). Elemental analyses (C, H, N) were within ±0.4% of theoretical values and were performed with a VARIO EL III elemental analyzer. Purity of all the tested compounds was greater than 98%, determined by HPLC as described below.

Row | solubility | Compound
1 | poor solubility | Cn1cc(-c2csc(-c3c[nH]c4ncccc34)n2)c2cc(F)ccc21 [Compound 3a, 3-[4-(5-Fluoro-1-methyl-1H-indol-3-yl)-1,3-thiazol-2-yl]-1H-pyrrolo[2,3-b]pyridine]
2 | poor solubility | Cn1cc(-c2csc(-c3cn(C)c4ncccc34)n2)c2cc(F)ccc21 [Compound 3b, 3-[4-(5-Fluoro-1-methyl-1H-indol-3-yl)-1,3-thiazol-2-yl]-1-methyl-1H-pyrrolo[2,3-b]pyridine]
